Data taken from paper PMC3688941, “Characterization of a Chitin-Binding Protein from Bacillus thuringiensis HD-1” (PLoS ONE, 2013).

Columns and labels:
Bt-Chitinase = system: T1, Bt-Chitinase; test: fluorometric chitinase assay; type: biochemical, Bacillus thuringiensis serovar kurstaki; settings: 50 mM sodium phosphate pH 7.0, 30 °C, 20 min; without Bt-CBP21; footnote gives substrate as 50 µM
T1 construct: EC 3.2.1.14
Text: fluorometric chitinase assay on Bt-Chitinase

Ha-Chitinase = test: fluorometric chitinase assay; type: biochemical, Helicoverpa armigera; settings: 50 mM sodium phosphate pH 7.0, 30 °C, 20 min; without Bt-CBP21; footnote gives substrate as 50 µM
Text: fluorometric chitinase assay on Ha-Chitinase

CC(=O)N[C@H]1[C@H](Oc2ccc3c(C)cc(=O)oc3c2)O[C@H](CO)[C@@H](O[C@@H]2O[C@H](CO)[C@@H](O)[C@H](O)[C@H]2NC(C)=O)[C@@H]1O [4-MU-(GlcNAc)2]
Km (Bt-Chitinase): 30 µM | Km (Ha-Chitinase): 1.4 µM
